The source of these data is US8163771B2, “11 β-HSD1 modulators” (Exelixis, Inc., priority 2008, dated 2012).

Bounds are passed on as bounds.

T1 sequence (P28845 whole entry): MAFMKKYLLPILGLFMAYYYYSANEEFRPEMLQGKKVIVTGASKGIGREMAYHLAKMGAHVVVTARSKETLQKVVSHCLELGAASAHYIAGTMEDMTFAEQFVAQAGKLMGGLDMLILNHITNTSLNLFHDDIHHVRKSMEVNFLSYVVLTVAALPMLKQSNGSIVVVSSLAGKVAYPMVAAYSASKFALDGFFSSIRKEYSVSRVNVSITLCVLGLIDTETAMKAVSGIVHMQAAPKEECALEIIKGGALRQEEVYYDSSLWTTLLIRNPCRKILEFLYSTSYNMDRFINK

The experiment concerns the target T1, recombinant human 11 β-HSD1 (Homo sapiens, UniProt P28845).
T1 construct: made in house; host or cells: E. coli
As to the kind of experiment: 11 β-HSD1 SPA Assay (Scintillation Proximity Assay). In kind it is biochemical. The method, then: (§1) Inhibition of 11 βHSD1 by test compounds was assessed in vitro by a Scintillation Proximity Assay (SPA). The assay was carried out in a 384-well assay plate in a total well volume of 26 μl and contained a mixture of tritiated cortisone substrate (40 nM), NADPH cofactor (1 mM), inhibitor in serial dilutions ([…] to 10 μM), and purified E. coli-expressed recombinant human 11 βHSD1 (30-100 nM) in assay buffer (50 mM HEPES, 100 mM KCl, 5 mM NaCl, and 2 mM MgCl2, pH7.4). Following mixing, the plate was incubated for 2 hours at room temperature. Reactions were stopped by addition of 30 μl of protein A YSi SPA beads (10 mg/ml) that had been pre-incubated with glycyrrhetinic acid (1 mM) and a monoclonal cortisol antibody (3 μg/ml). The plate was then incubated overnight at room temperature prior to reading on a Microbeta counter. Percent inhibition of each compound was calculated based on the background and the maximal signals. Wells that contained substrate without compound or enzyme were used as the background signal, while the wells that contained substrate and enzyme without any compound were used as the maximal signal. The calculation of the IC50 values for the inhibitors was performed by Activity Base.
as §1, with “β-HSD1” for “βHSD1”
Turning to `CC(C)(Oc1cc(Cl)c(C(C)(C)O)cc1Cl)C(=O)N[C@H]1C[C@H]2CC[C@@H](C1)N2c1ccc(C(=O)NCC(F)F)cn1` [Example 303, 6-[3-endo-({2-[2,5-dichloro-4-(2-hydroxypropan-2-yl)phenoxy]-2-methylpropanoyl}amino)-8-azabicyclo[3.2.1]oct-8-yl]-N-(2,2-difluoroethyl)pyridine-3-carboxamide], the IC50 was under 200 nM.
To `CC(C)(Oc1cc(F)c(Cl)cc1Cl)C(=O)N[C@H]1C[C@H]2CC[C@@H](C1)N2c1ccc(C(=O)NCC(F)(F)F)cn1` [Example 90, 6-[3-endo-({2-[(2,4-dichloro-5-fluorophenyl)oxy]-2-methylpropanoyl}amino)-8-azabicyclo[3.2.1]oct-8-yl]-N-(2,2,2-trifluoroethyl)pyridine-3-carboxamide] belongs under 200 nM.
As for `CC(C)(Oc1cc(C(C)(C)O)c(Cl)cc1Cl)C(=O)N[C@H]1C[C@H]2CC[C@@H](C1)N2c1ccc(C(N)=O)cn1` [Example 473, 6-[3-endo-({2-[2,4-dichloro-5-(2-hydroxypropan-2-yl)phenoxy]-2-methylpropanoyl}amino)-8-azabicyclo[3.2.1]oct-8-yl]pyridine-3-carboxamide], the IC50 is under 200 nM.
Turning to `C[C@H](NC(=O)c1ccc(N2C3CCC2CC(NC(=O)C(C)(C)Oc2ccc(Cl)cc2Cl)C3)nc1)C(F)(F)F` (stereo partly drawn) [Example 374, 6-(3-endo-{[2-(2,4-dichlorophenoxy)-2-methylpropanoyl]amino}-8-azabicyclo[3.2.1]oct-8-yl)-N-[(2S)-1,1,1-trifluoropropan-2-yl]pyridine-3-carboxamide], the IC50 was under 200 nM.
Consider `CC(C)(Oc1ccc(Cl)cc1OC(F)(F)F)C(=O)NC1CC2CCC(C1)N2c1ccc(C(=O)N2CCC[C@H]2CO)cn1` (stereo partly drawn) [Example 455, 2-[4-chloro-2-(trifluoromethoxy)phenoxy]-n-[8-(5-{[(2s)-2-(hydroxymethyl)pyrrolidin-1-yl]carbonyl}pyridin-2-yl)-8-azabicyclo[3.2.1]oct-3-endo-yl]-2-methylpropanamide], for which the IC50 was under 200 nM.
Turning to `C[C@@H](CO)NC(=O)c1ccc(N2C3CCC2CC(NC(=O)C(C)(C)Oc2ccc(Cl)cc2Cl)C3)nc1` (stereo partly drawn) [Example 397, 6-(3-endo-{[2-(2,4-dichlorophenoxy)-2-methylpropanoyl]amino}-8-azabicyclo[3.2.1]oct-8-yl)-N-[(2S)-1-hydroxypropan-2-yl]pyridine-3-carboxamide], the IC50 is under 200 nM.
Consider `CC(C)(Oc1cc(CC(=O)O)c(Cl)cc1Cl)C(=O)N[C@H]1C[C@H]2CC[C@@H](C1)N2c1ccc(C(=O)NCC(F)F)cn1` [Example 460, [2,4-dichloro-5-({1-[(8-{5-[(2,2-difluoroethyl)carbamoyl]pyridin-2-yl}-8-azabicyclo[3.2.1]oct-3-endo-yl)amino]-2-methyl-1-oxopropan-2-yl}oxy)phenyl]acetic acid], for which the IC50 was under 200 nM.
Regarding `CC(C)(Oc1c(Cl)cc(F)cc1C(F)(F)F)C(=O)N[C@H]1C[C@H]2CC[C@@H](C1)N2c1ccc(S(N)(=O)=O)cn1` [Example 251, N-{8-[5-(aminosulfonyl)pyridin-2-yl]-8-azabicyclo[3.2.1]oct-3-endo-yl}-2-{[2-chloro-4-fluoro-6-(trifluoromethyl)phenyl]oxy}-2-methylpropanamide], the IC50 was under 200 nM.
With `CC(C)(Oc1ccc(Cl)cc1C(F)(F)F)C(=O)N[C@H]1C[C@H]2CC[C@@H](C1)N2c1ccc(-c2nnn[nH]2)nc1` [Example 306, 2-{[4-chloro-2-(trifluoromethyl)phenyl]oxy}-2-methyl-N-{8-[6-(1H-tetrazol-5-yl)pyridin-3-yl]-8-azabicyclo[3.2.1]oct-3-endo-yl}propanamide], the IC50 is under 200 nM.
For the molecule `CC(C)(Oc1ncc(Cl)cc1Cl)C(=O)N[C@H]1C[C@H]2CC[C@@H](C1)N2c1ncc(C(=O)NCC(F)(F)F)cc1F` [Example 161, 6-[3-endo-({2-[(3,5-dichloropyridin-2-yl)oxy]-2-methylpropanoyl}amino)-8-azabicyclo[3.2.1]oct-8-yl]-5-fluoro-N-(2,2,2-trifluoroethyl)pyridine-3-carboxamide], the IC50 is under 200 nM.
Regarding `NC(=O)c1ccc(N2[C@@H]3CC[C@H]2C[C@@H](NC(=O)C2(c4cccc(F)c4)CC2)C3)nc1` [Example 104, 6-[3-endo-({[1-(3-fluorophenyl)cyclopropyl]carbonyl}amino)-8-azabicyclo[3.2.1]oct-8-yl]pyridine-3-carboxamide], the IC50 was under 200 nM.
For the molecule `CC(C)(Oc1ccc(F)c(Cl)c1Cl)C(=O)N[C@H]1C[C@H]2CC[C@@H](C1)N2c1ccc(NS(C)(=O)=O)cn1` [Example 290, 2-[(2,3-dichloro-4-fluorophenyl)oxy]-2-methyl-N-(8-{5-[(methylsulfonyl)amino]pyridin-2-yl}-8-azabicyclo[3.2.1]oct-3-endo-yl)propanamide], the IC50 is under 200 nM.
As for `CC(C)(C(=O)N[C@H]1C[C@H]2CC[C@@H](C1)N2c1ccc(C(=O)NC2CC2)cn1)c1cccc(Cl)c1` [Example 25, 6-(3-endo-{[2-(3-chlorophenyl)-2-methylpropanoyl]amino}-8-azabicyclo[3.2.1]oct-8-yl)-N-cyclopropylpyridine-3-carboxamide], the IC50 is under 200 nM.
With `CC(C)(Oc1ccc(C(F)(F)F)cc1)C(=O)N[C@H]1C[C@H]2CC[C@@H](C1)N2c1ccc(C(N)=O)cn1` [Example 172, 6-{3-endo-[(2-methyl-2-{[4-(trifluoromethyl)phenyl]oxy}propanoyl)amino]-8-azabicyclo[3.2.1]oct-8-yl}pyridine-3-carboxamide], the IC50 was under 200 nM.
Take `CC(C)(Oc1cccc2cc[nH]c12)C(=O)N[C@H]1C[C@H]2CC[C@@H](C1)N2c1ccc(C(=O)NCC(F)(F)F)cn1` [Example 390, 6-(3-endo-{[2-(1H-indol-7-yloxy)-2-methylpropanoyl]amino}-8-azabicyclo[3.2.1]oct-8-yl)-N-(2,2,2-trifluoroethyl)pyridine-3-carboxamide]: the half-inhibitory concentration (IC50) was under 200 nM.
With `CC(C)(Oc1ccc(Cl)cc1Cl)C(=O)N[C@H]1C[C@H]2CC[C@@H](C1)N2c1ccc(NC(=O)NCC(F)(F)F)cc1F` [Example 137, 2-[(2,4-dichlorophenyl)oxy]-N-{8-[2-fluoro-4-({[(2,2,2-trifluoroethyl)amino]carbonyl}amino)phenyl]-8-azabicyclo[3.2.1]oct-3-endo-yl}-2-methylpropanamide], the IC50 was under 200 nM.
As to `CC(C)(Oc1ccc(Cl)cc1S(N)(=O)=O)C(=O)N[C@H]1C[C@H]2CC[C@@H](C1)N2c1ccc(C(=O)NCC(F)(F)F)cn1` [Example 388, 6-(3-endo-{[2-(4-chloro-2-sulfamoylphenoxy)-2-methylpropanoyl]amino}-8-azabicyclo[3.2.1]oct-8-yl)-N-(2,2,2-trifluoroethyl)pyridine-3-carboxamide], the 50% inhibitory concentration (IC50) is under 2000 nM.
As to `CC(C)(Oc1ccccc1Cl)C(=O)N[C@H]1C[C@H]2CC[C@@H](C1)N2c1ccc(C(=O)NC2CC2)cn1` [Example 24, 6-[3-endo-({2-[(2-chlorophenyl)oxy]-2-methylpropanoyl}amino)-8-azabicyclo[3.2.1]oct-8-yl]-N-cyclopropylpyridine-3-carboxamide], the IC50 is under 200 nM.
With `CC(C)(Oc1ccc(Cl)cc1Cl)C(=O)N[C@H]1C[C@H]2CC[C@@H](C1)N2C(=O)c1cccc(C(N)=O)c1` [Example 327, 3-{[3-endo-({2-[(2,4-dichlorophenyl)oxy]-2-methylpropanoyl)amino)-8-azabicyclo[3.2.1]oct-8-yl]carbonyl}benzamide], the IC50 was under 2000 nM.
Consider `C[C@H](NC(=O)c1ccc(N2C3CCC2CC(NC(=O)C(C)(C)Oc2ccc(C(F)F)cc2Cl)C3)nc1)C(F)(F)F` (stereo partly drawn) [Example 453, 6-[3-endo-({2-[2-chloro-4-(difluoromethyl)phenoxy]-2-methylpropanoyl}amino)-8-azabicyclo[3.2.1]oct-8-yl]-N-[(2S)-1,1,1-trifluoropropan-2-yl]pyridine-3-carboxamide], for which the IC50 is under 200 nM.
For the molecule `CC(C)(Oc1ccc(Cl)cc1Cl)C(=O)NC1CC2CCC(C1)N2c1ccc(C(=O)NC[C@H](O)C(F)(F)F)cn1` (stereo partly drawn) [Example 456, 6-(3-endo-{[2-(2,4-dichlorophenoxy)-2-methylpropanoyl]amino}-8-azabicyclo[3.2.1]oct-8-yl)-N-[(2S)-3,3,3-trifluoro-2-hydroxypropyl]pyridine-3-carboxamide], the IC50 is under 200 nM.
The figure for `C=C(C)c1cc(OC(C)(C)C(=O)N[C@H]2C[C@H]3CC[C@@H](C2)N3c2ccc(C(=O)NCC(F)F)cn2)c(Cl)cc1Cl` [Example 478, 6-[3-endo-({2-[2,4-dichloro-5-(prop-1-en-2-yl)phenoxy]-2-methylpropanoyl}amino)-8-azabicyclo[3.2.1]oct-8-yl]-N-(2,2-difluoroethyl)pyridine-3-carboxamide] is under 200 nM.
